One test addresses T1, DCLK1-FL1Δ WT (Homo sapiens, UniProt O15075).
T1 sequence (O15075 50-686 isoform O15075-2): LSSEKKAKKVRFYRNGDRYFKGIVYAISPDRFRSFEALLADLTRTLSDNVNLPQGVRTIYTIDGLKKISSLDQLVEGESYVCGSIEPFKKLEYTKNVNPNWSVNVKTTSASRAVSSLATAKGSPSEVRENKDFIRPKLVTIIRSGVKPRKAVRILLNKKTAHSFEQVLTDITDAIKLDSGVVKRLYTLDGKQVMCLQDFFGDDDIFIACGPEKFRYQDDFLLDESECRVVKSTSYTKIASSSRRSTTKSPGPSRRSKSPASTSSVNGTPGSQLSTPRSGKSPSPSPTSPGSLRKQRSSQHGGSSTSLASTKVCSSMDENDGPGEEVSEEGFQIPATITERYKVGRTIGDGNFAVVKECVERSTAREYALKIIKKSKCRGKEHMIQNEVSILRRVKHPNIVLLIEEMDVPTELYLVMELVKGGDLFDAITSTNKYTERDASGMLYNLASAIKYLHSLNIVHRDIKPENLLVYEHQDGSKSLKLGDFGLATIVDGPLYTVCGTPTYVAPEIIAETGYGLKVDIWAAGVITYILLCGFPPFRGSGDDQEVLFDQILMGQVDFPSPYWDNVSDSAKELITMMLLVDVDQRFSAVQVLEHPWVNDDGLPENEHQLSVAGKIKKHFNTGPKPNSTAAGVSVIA
As to the kind of experiment: SPR binding to immobilised DCLK1-FL1Δ WT (phosphorylated). The note with it: for Kd / kon, kinetic fitting: SPR, mean ± SEM; for Kd: 18 °C, DCLK1 FL1Δ WT immobilised; for kon, kinetic fitting: DCLK1 FL1Δ WT; for koff: read-out: koff, kinetic fitting. As for the experimental part:
(§1) SPR studies were carried out on a Biacore 2000 instrument (Cytivia). Proteins were immobilised at 25 °C using standard amine coupling to a CM5 chip (Cytivia) in immobilisation buffer consisting of 10 mM HEPES pH 7.4, 150 mM NaCl, 1 mM TCEP, 0.005% Tween P20, 1% (v/v) DMSO. To the active flow, cells were coupled either DCLK1-FL1Δ D511N or WT to a final density of approximately 7000 RU, followed by surface deactivation with 1 M ethanolamine. For each protein, coupling was performed at a concentration of 2 µM protein in 10 mM sodium acetate buffer pH 4.0, 1% (v/v) DMSO final, in the presence 10 µM of the moderate affinity compound FMF-03-149-01 (IC50 ~400 nM)[28] to help to stabilise the kinase domain during immobilsiation at low pH. A blank immobilisation was performed on the reference flow cell.
(§2) Binding experiments were performed at 18 °C in running buffer consisting of 20 mM HEPES, pH 7.4, 150 mM NaCl, 1 mM tris(2-carboxyethyl)phosphine (TCEP), 0.005% (v/v) Tween-P20, and 2% (v/v) DMSO. Compounds (10 mM stocks in 100% DMSO) were diluted in DMSO to 500 µM (DCLK1-NEG) or 25 µM (all other compounds) then in running buffer (without DMSO) to achieve the starting concentration with a final DMSO concentration of 2% (v/v). Samples were then serially titrated in running buffer containing 2% (v/v) DMSO to prepare each final concentration series (seven-point, three-fold serial dilution, 10 µM−13.7 nM for DCLK1-NEG, or 500−0.68 nM for all other compounds). Solutions were injected in multi-cycle format (in duplicate) without regeneration (contact time 80 s, flow rate 75 μL/min, dissociation time 600 s), with an extra wash (50% DMSO) after each injection.
(§3) Steady-state/kinetic binding data were fitted using the S200 BIAevaluation software (GE Healthcare). Sensorgrams from reference surfaces and blank injections were subtracted from the raw data (double-referencing), followed by solvent correction. Kinetic rate constants (kon and koff values) were obtained by fitting to 1:1 Langmuir binding model. Reported binding data represent mean ± SEM for three or four independent experiments. The dissociative half-life life (t1/2) for each inhibitor complex with DCLK1 was calculated from the fitted dissociation rate constant (koff), according to the equation 1 (t1/2 = ln(2)/koff.)
Background: SPR reads the build-up and loss of mass on a sensor chip optically.

For test [1], the target named is T2, DCLK1-KD (residues 372-649) (Homo sapiens, UniProt O15075).
T2 construct: the DCLK1 kinase domain (DCLK1-KD; residues 372-649) by carrying out thermal stability assays; 8XHis tag with TEV protease cleavage site (N); made in house; host or cells: Escherichia coli C41(DE3)
T2 sequence (O15075 372-649 isoform O15075-2): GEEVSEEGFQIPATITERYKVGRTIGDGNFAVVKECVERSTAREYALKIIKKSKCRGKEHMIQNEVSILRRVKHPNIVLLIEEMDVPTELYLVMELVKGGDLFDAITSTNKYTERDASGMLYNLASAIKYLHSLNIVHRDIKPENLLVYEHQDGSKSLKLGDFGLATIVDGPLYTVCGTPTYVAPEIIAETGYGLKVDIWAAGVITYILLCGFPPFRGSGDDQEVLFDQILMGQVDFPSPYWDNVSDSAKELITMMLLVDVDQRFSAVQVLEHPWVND
As to the kind of experiment: Thermal shift stability assay, DCLK1-KD. Format: binding. Conditions: compound titration 2.5 to 40 μM. As to the method: (§4) DCLK1 proteins were diluted in 150 mM NaCl, 20 mM Tris pH 8.0, 1 mM DTT to […] final concentration and assayed with the appropriate concentration of inhibitor in a total reaction volume of 25 μL. SYPRO Orange (Molecular Probes) was used as a fluorescence probe and detected at 530 nm. The data shown are representative of two independent experiments.

The target of test [2] is T3, DCLK1-FL1Δ D511N (Homo sapiens, UniProt O15075, D511N).
T3 construct: DCLK1-FL1Δ (residues 50-686); 8XHis tag with TEV protease cleavage site (N); made in house; host or cells: Escherichia coli C41(DE3)
As to the kind of experiment: SPR binding to immobilised DCLK1-FL1Δ D511N (non-phosphorylated). The note with it: for Kd / kon, kinetic fitting: SPR; for kon, kinetic fitting: DCLK1 FL1Δ D511N; for koff: read-out: koff, kinetic fitting; for kon: read-out: kon (Fig. 5c). As to the method:
as §1, §2, §3

Test [3] deals with T4, DCLK1-FL1Δ D511N tubulin polymerisation (MAP function) (Homo sapiens, UniProt O15075, D511N).
T4 construct: DCLK1-FL1Δ (residues 50-686); 8XHis tag with TEV protease cleavage site (N); made in house; host or cells: Escherichia coli C41(DE3)
T4 sequence (O15075 50-686 isoform O15075-2 D511N): T1 sequence (O15075 50-686 isoform O15075-2) with D462N
As to the kind of experiment: Fluorescence-based Tubulin Polymerisation Assay with DCLK1-FL1Δ D511N. Format: biochemical. The note with it: 80 μM, fluorescence (Fig. 5e). As to the method:
Tubulin polymerisation assay were performed using the Microtubule Polymerisation/Depolymerisation Fluorescence Kit (Cytoskeleton #BK011P) in accordance with the manufacturer’s instructions. DCLK1 (4 μΜ) was added to 50 μL tubulin reaction mix containing Buffer 1 (80 mM PIPES at pH 6.9, 2.0 mM MgCl2, 0.5 mM EGTA, 10 μM fluorescent reporter), guanosine triphosphate stock solution at 100 mM, and tubulin (10 mg/ml) stock solution, as described by the manufacturer. Paclitaxel, a control of tubulin polymerisation, was tested at 3 μM, and Νocodazole, a tubulin polymerisation inhibitor, was tested at 80 μΜ. DCLK1-IN-1 was tested at 20 and 40 μΜ with buffer alone as controls. Polymerisation leads to fluorescence enhancement due to incorporation of a fluorescence reporter into polymerising microtubules and was measured by excitation at 355 nm and emission at 460 nm. Readings were taken every 20 s on EnVision Multimode Plate Reader. Each condition was tested in duplicate with two independent batches of protein.

The target in test [4] is T4, DCLK1-FL1Δ D511N tubulin polymerisation (MAP function). As to the kind of experiment: Tubulin polymerisation and pelleting assay with DCLK1-FL1Δ D511N. The note with it: 40 μM, pelleting / SDS-PAGE (Fig. 5d). In kind it is biochemical. As to the method:
Tubulin polymerisation assays were performed in buffer containing 80 mM PIPES at pH 6.9, 2.0 mM MgCl2, 0.5 mM EGTA, 2.5 mM β,γ-Methyleneguanosine 5’-triphosphate, and 10 μM tubulin and 5 μM DCLK1 for 1 h at 37 °C. For tubulin polymerisation in the presence of inhibitors, various concentrations of the inhibitors were first incubated with DCLK1 and allowed to stand on ice for 5 min before adding this mix to the tubulin polymerisation reaction. Following the tubulin polymerisation, the reaction mix was pelleted at 20,000 g for 20 min and the supernatant and the pellet fractions were run on a 12% SDS gel. The data shown are representative of two independent experiments.

Test [5] has as its target T3, DCLK1-FL1Δ D511N. As to the kind of experiment: Thermal shift stability assay, DCLK1-FL1Δ D511N. Format: binding. Conditions: 40 μM. As to the method:
as §4

The target of a further test is T5, DCLK1-KD G532V (Homo sapiens, UniProt O15075, G532V).
T5 construct: Truncated DCLK1 constructs, DCLK1-KD (residues 372-649); 8XHis tag with TEV protease cleavage site (N); made in house; host or cells: Escherichia coli C41(DE3)
T5 sequence (O15075 372-649 isoform O15075-2 G532V): T2 sequence (O15075 372-649 isoform O15075-2) with G161V
As to the kind of experiment: Thermal shift stability assay, DCLK1-KD G532V. Format: binding. The note with it: XMD8-85 40 μM, versus DCLK1-KD WT. As to the method: Thermal shift stability assays were performed as described previously. DCLK1 proteins were diluted in 150 mM NaCl, 20 mM Tris pH 8.0, 1 mM DTT to […] final concentration and assayed with the appropriate concentration of inhibitor in a total reaction volume of 25 μL. SYPRO Orange (Molecular Probes) was used as a fluorescence probe and detected at 530 nm. The data shown are representative of two independent experiments.

Another test relates to DCLK1. Conditions: N-ethyl substitution at R4; cited from earlier work.
Where [6] appears, read: kinetic fitting (1:1 binding model).
The mark [7] stands for this setting: KD, kinetic fitting (1:1 binding model), 18 °C, DCLK1 FL1Δ D511N immobilised, mean ± SEM.
Setting [8] is: KD, steady state fitting, 18 °C, DCLK1 FL1Δ D511N immobilised, mean ± SEM.

Substitutions are numbered along the chain they refer to. Marks after values point to notes of the source that are not given here. Where only a bound is given, the exact number is not on record here.

T3 sequence (O15075 50-686 D511N): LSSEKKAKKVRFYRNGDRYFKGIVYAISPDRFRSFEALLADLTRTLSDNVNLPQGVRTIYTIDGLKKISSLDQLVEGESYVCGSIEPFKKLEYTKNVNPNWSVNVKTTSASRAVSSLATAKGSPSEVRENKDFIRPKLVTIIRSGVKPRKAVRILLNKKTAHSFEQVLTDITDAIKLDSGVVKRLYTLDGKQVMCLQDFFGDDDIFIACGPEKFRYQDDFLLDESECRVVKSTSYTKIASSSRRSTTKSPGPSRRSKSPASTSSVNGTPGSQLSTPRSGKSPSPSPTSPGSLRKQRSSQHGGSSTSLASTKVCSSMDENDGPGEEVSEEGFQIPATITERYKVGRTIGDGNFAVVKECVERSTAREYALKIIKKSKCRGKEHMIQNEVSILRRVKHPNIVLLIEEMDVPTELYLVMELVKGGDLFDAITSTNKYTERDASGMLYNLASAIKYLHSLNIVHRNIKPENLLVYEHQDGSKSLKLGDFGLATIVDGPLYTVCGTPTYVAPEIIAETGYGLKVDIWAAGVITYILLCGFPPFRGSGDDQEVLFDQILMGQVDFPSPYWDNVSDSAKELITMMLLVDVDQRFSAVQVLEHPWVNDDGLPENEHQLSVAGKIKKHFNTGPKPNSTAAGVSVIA

The Kd is a measure of binding affinity in units of concentration. The low end stands for higher affinity, the high end for lower affinity. As for `COc1cc(N2CCN(C)CC2)ccc1Nc1ncc2c(n1)N(C)c1ccc(C)cc1C(=O)N2CC(F)(F)F` [DCLK1-NEG], the Kd was greater than 10000 nM at DCLK1-FL1Δ WT (steady state fitting) and greater than 10000 nM at DCLK1-FL1Δ D511N [2] (KD (weak binding to DCLK1), top concentration 10 µM). For the same molecule, the “binding by shift in melting temperature (ΔTm)” value in test [1] is given as “severely reduced binding to DCLK1-KD”.
For `COC(=O)Nc1nc2ccc(C(=O)c3cccs3)cc2[nH]1` [nocodazole], the “effect on tubulin polymerisation” value in test [3] and in test [4] was “inhibits tubulin polymerisation” throughout. Also, on DCLK1-FL1Δ D511N [5], the “binding to DCLK1 by thermal stability assay” value is recorded as “does not bind”.
Usually koff stands for the rate constant with which the complex falls apart. Broadly, the kon is a measure of how fast the partners come together. With `COc1cc(N2CCN(C)CC2)ccc1Nc1ncc2c(n1)N(C)c1ccccc1C(=O)N2C` [XMD8-85], the Kd at DCLK1-FL1Δ WT (setting [6]) was found to be 7.5 ± 0.3 nM; at DCLK1-FL1Δ WT (steady state fitting) it was 12 ± 2 nM; at DCLK1-FL1Δ D511N [2] (setting [7]) it was 8 nM; on DCLK1-FL1Δ D511N [2] (setting [8]), 14 ± 1 nM. The “kon, kinetic fitting” value on DCLK1-FL1Δ WT is recorded as 22 ± 2 1/Ms (x 10^5); at DCLK1-FL1Δ D511N [2] (mean ± SEM), 12.8 ± 0.5 1/Ms (x 10^5). Moreover, the off-rate constant (koff) at DCLK1-FL1Δ WT worked out at 0.016 ± 0.001 s⁻¹; on DCLK1-FL1Δ D511N [2], 0.01 ± 0.001 s⁻¹. Moreover, on DCLK1-KD G532V, the “effect of Gly532 to valine mutation on binding affinity” value was “considerably reduces XMD8-85 binding affinity”. For the same molecule, in test [1], the “binding by shift in melting temperature (ΔTm)” value is given as “bind DCLK1-KD”. The kon at DCLK1-FL1Δ D511N [2] is 1.28e+06 ± 50000 M⁻¹ s⁻¹.
In the case of `CCN1C(=O)c2ccccc2N(C)c2nc(Nc3ccc(N4CCN(C)CC4)cc3OC)ncc21` [FMF-03-055-1], the Kd is 12 ± 2 nM at DCLK1-FL1Δ WT (setting [6]), 28 ± 2 nM on DCLK1-FL1Δ WT (steady state fitting), 13 nM on DCLK1-FL1Δ D511N [2] (setting [7]) and 24 ± 1 nM on DCLK1-FL1Δ D511N [2] (setting [8]). The “kon, kinetic fitting” value is 9.6 ± 0.6 1/Ms (x 10^5) at DCLK1-FL1Δ WT and 11 ± 4 1/Ms (x 10^5) on DCLK1-FL1Δ D511N [2] (mean ± SEM). Also, the figures for the koff at DCLK1-FL1Δ WT and on DCLK1-FL1Δ D511N [2] were 0.011 ± 0.001 s⁻¹ and 0.014 ± 0.006 s⁻¹, respectively. Besides, in the test with DCLK1, the “enhanced potency on DCLK1 compared to XMD8-85” value is listed as 5 fold. For the same molecule, the kon at DCLK1-FL1Δ D511N [2] amounted to 1.1e+06 ± 400000 M⁻¹ s⁻¹.
